Assay results from paper PMC11850127 (The Journal of Biological Chemistry, 2025).
“Also recorded” adds a separate entry of the source. Starred links: 1 amine or outer side, 2 acyl side, 3 side chain; linkers in the order of their positions; H or OH if unused. Positions of bridges follow the written chain, without caps; N, C: chain ends. Non-standard residues stand in square brackets, D forms with d. Residues, ends and D or L forms follow the SMILES beside them. Chains are numbered I, II in the order given. Actinocin(9to1) = Cc1c2oc3c(C)ccc(C(=O)[*:1])c3nc-2c(C(=O)[*:2])c(N)c1=O; NMeV = CN[C@H](C(=O)O)C(C)C; Sar = CNCC(=O)O

Test system: [V13′T]α10 nAChR
Format: cell-based, human (expressed in Xenopus laevis oocytes)

SMILES: Cc1c2oc3c(C)ccc(C(=O)N[C@@H]4C(=O)N[C@H](C(C)C)C(=O)N5CCC[C@H]5C(=O)N(C)CC(=O)N(C)[C@@H](C(C)C)C(=O)O[C@@H]4C)c3nc-2c(C(=O)N[C@@H]2C(=O)N[C@H](C(C)C)C(=O)N3CCC[C@H]3C(=O)N(C)CC(=O)N(C)[C@@H](C(C)C)C(=O)O[C@@H]2C)c(N)c1=O [actinomycin D] (I: T[dV]P[Sar][NMeV] / II: T[dV]P[Sar][NMeV]; ester I:1-I:C, II:1-II:C; linker I:N-II:N via Actinocin(9to1))
- effect of actinomycin D on ACh-induced currents: did not differ in the magnitude of their ACh-induced currents from untreated controls; also recorded: not significantly different
- mean ACh-induced response with actinomycin D: −233 ± 219 nA
